Results as given in PubChem BioAssay (NCI).
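Protocol summary: plate cells (96-well), add compound at 5 concentrations, incubate 48 h, interpolate endpoints linearly. The concentration for full growth arrest is given as TGI.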

How the values were obtained:
Assay in all cases: inhibition of tumour cell growth, NCI panel, 48 h
786-0 renal = test system: 786-0 renal
A498 renal = test system: A498 renal
A549 NSCLC = test system: A549 NSCLC
ACHN renal = test system: ACHN renal
BT-549 breast = test system: BT-549 breast
CAKI-1 renal = test system: CAKI-1 renal
CCRF-CEM leukemia = test system: CCRF-CEM leukemia
COLO 205 colon = test system: COLO 205 colon
DU-145 prostate = test system: DU-145 prostate
EKVX NSCLC = test system: EKVX NSCLC
HCC-2998 colon = test system: HCC-2998 colon
HCT-116 colon = test system: HCT-116 colon
HCT-15 colon = test system: HCT-15 colon
HL-60(TB) leukemia = test system: HL-60(TB) leukemia
HOP-62 NSCLC = test system: HOP-62 NSCLC
HOP-92 NSCLC = test system: HOP-92 NSCLC
HS 578T breast = test system: HS 578T breast
HT29 colon = test system: HT29 colon
IGROV1 ovarian = test system: IGROV1 ovarian
K-562 leukemia = test system: K-562 leukemia
KM12 colon = test system: KM12 colon
M14 melanoma = test system: M14 melanoma
MALME-3M melanoma = test system: MALME-3M melanoma
MCF7 breast = test system: MCF7 breast
MDA-MB-231 breast = test system: MDA-MB-231 breast
MDA-MB-435 = test system: MDA-MB-435
MDA-N = test system: MDA-N
MOLT-4 leukemia = test system: MOLT-4 leukemia
NCI-H226 lung = test system: NCI-H226 lung
NCI-H23 lung = test system: NCI-H23 lung
NCI-H460 lung = test system: NCI-H460 lung
NCI-H522 lung = test system: NCI-H522 lung
NCI/ADR-RES ovarian = test system: NCI/ADR-RES ovarian
OVCAR-3 ovarian = test system: OVCAR-3 ovarian
OVCAR-4 ovarian = test system: OVCAR-4 ovarian
OVCAR-5 ovarian = test system: OVCAR-5 ovarian
OVCAR-8 ovarian = test system: OVCAR-8 ovarian
PC-3 prostate = test system: PC-3 prostate
RPMI-8226 leukemia = test system: RPMI-8226 leukemia
RXF 393 renal = test system: RXF 393 renal
SF-268 CNS = test system: SF-268 CNS
SF-295 CNS = test system: SF-295 CNS
SF-539 CNS = test system: SF-539 CNS
SK-MEL-2 melanoma = test system: SK-MEL-2 melanoma
SK-MEL-5 melanoma = test system: SK-MEL-5 melanoma
SK-OV-3 ovarian = test system: SK-OV-3 ovarian
SN12C renal = test system: SN12C renal
SNB-19 CNS = test system: SNB-19 CNS
SR leukemia = test system: SR leukemia
SW-620 colon = test system: SW-620 colon
TK-10 renal = test system: TK-10 renal
U251 CNS = test system: U251 CNS
UACC-257 melanoma = test system: UACC-257 melanoma
UACC-62 melanoma = test system: UACC-62 melanoma
UO-31 renal = test system: UO-31 renal
LOX IMVI melanoma = test system: LOX IMVI melanoma
SK-MEL-28 melanoma = test system: SK-MEL-28 melanoma
T-47D breast = test system: T-47D breast

Structure (SMILES): CC[N+]1(C)CCC(O)(c2ccc(C)cc2)C(C(=O)c2ccc(C)cc2)C1 (stereo unspecified)
- TGI (786-0 renal): 34.6 µM
- TGI (A498 renal): > 100 µM
- TGI (A549 NSCLC): > 100 µM
- TGI (ACHN renal): 48 µM
- TGI (BT-549 breast): > 100 µM
- TGI (CAKI-1 renal): 61.4 µM
- TGI (CCRF-CEM leukemia): 44.2 µM
- TGI (COLO 205 colon): 55.7 µM
- TGI (DU-145 prostate): > 100 µM
- TGI (EKVX NSCLC): > 100 µM
- TGI (HCC-2998 colon): > 100 µM
- TGI (HCT-116 colon): > 100 µM
- TGI (HCT-15 colon): 45.9 µM
- TGI (HL-60(TB) leukemia): > 100 µM
- TGI (HOP-62 NSCLC): > 100 µM
- TGI (HOP-92 NSCLC): 46.2 µM
- TGI (HS 578T breast): > 100 µM
- TGI (HT29 colon): > 100 µM
- TGI (IGROV1 ovarian): > 100 µM
- TGI (K-562 leukemia): 37.5 µM
- TGI (KM12 colon): > 100 µM
- TGI (M14 melanoma): > 100 µM
- TGI (MALME-3M melanoma): 52.7 µM
- TGI (MCF7 breast): 36.9 µM
- TGI (MDA-MB-231 breast): 62.3 µM
- TGI (MDA-MB-435): > 100 µM
- TGI (MDA-N): > 100 µM
- TGI (MOLT-4 leukemia): 48.1 µM
- TGI (NCI-H226 lung): > 100 µM
- TGI (NCI-H23 lung): > 100 µM
- TGI (NCI-H460 lung): > 100 µM
- TGI (NCI-H522 lung): 41.7 µM
- TGI (NCI/ADR-RES ovarian): > 100 µM
- TGI (OVCAR-3 ovarian): 39.6 µM
- TGI (OVCAR-4 ovarian): 86.3 µM
- TGI (OVCAR-5 ovarian): > 100 µM
- TGI (OVCAR-8 ovarian): > 100 µM
- TGI (PC-3 prostate): > 100 µM
- TGI (RPMI-8226 leukemia): 37.3 µM
- TGI (RXF 393 renal): 84.9 µM
- TGI (SF-268 CNS): > 100 µM
- TGI (SF-295 CNS): > 100 µM
- TGI (SF-539 CNS): > 100 µM
- TGI (SK-MEL-2 melanoma): > 100 µM
- TGI (SK-MEL-5 melanoma): > 100 µM
- TGI (SK-OV-3 ovarian): > 100 µM
- TGI (SN12C renal): > 100 µM
- TGI (SNB-19 CNS): > 100 µM
- TGI (SR leukemia): 39.6 µM
- TGI (SW-620 colon): 39.3 µM
- TGI (TK-10 renal): 47.5 µM
- TGI (U251 CNS): > 100 µM
- TGI (UACC-257 melanoma): > 100 µM
- TGI (UACC-62 melanoma): > 100 µM
- TGI (UO-31 renal): > 100 µM

Structure (SMILES): CNC(=S)NNc1ncnc2c1c(-c1ccc(Cl)cc1)cn2-c1ccc(C)cc1
- TGI (786-0 renal): 24.2 µM
- TGI (A498 renal): 49.6 µM
- TGI (A549 NSCLC): 19.2 µM
- TGI (ACHN renal): 22.8 µM
- TGI (BT-549 breast): 29.2 µM
- TGI (CAKI-1 renal): 23.2 µM
- TGI (CCRF-CEM leukemia): > 100 µM
- TGI (COLO 205 colon): 29.6 µM
- TGI (DU-145 prostate): 43.4 µM
- TGI (EKVX NSCLC): 28.8 µM
- TGI (HCT-116 colon): 17.1 µM
- TGI (HCT-15 colon): 21 µM
- TGI (HL-60(TB) leukemia): > 100 µM
- TGI (HOP-62 NSCLC): 39.2 µM
- TGI (HOP-92 NSCLC): 30.8 µM
- TGI (HS 578T breast): 57.8 µM
- TGI (HT29 colon): 29.8 µM
- TGI (IGROV1 ovarian): 25 µM
- TGI (K-562 leukemia): > 100 µM
- TGI (KM12 colon): 22 µM
- TGI (LOX IMVI melanoma): 33.5 µM
- TGI (M14 melanoma): 26.5 µM
- TGI (MALME-3M melanoma): 33 µM
- TGI (MDA-MB-231 breast): 21.7 µM
- TGI (MDA-MB-435): 23.6 µM
- TGI (MDA-N): 28 µM
- TGI (MOLT-4 leukemia): > 100 µM
- TGI (NCI-H226 lung): 57.5 µM
- TGI (NCI-H23 lung): 28.2 µM
- TGI (NCI-H460 lung): 17.8 µM
- TGI (NCI-H522 lung): 20.7 µM
- TGI (NCI/ADR-RES ovarian): 34.4 µM
- TGI (OVCAR-3 ovarian): 24 µM
- TGI (OVCAR-4 ovarian): 37.6 µM
- TGI (OVCAR-5 ovarian): 29 µM
- TGI (OVCAR-8 ovarian): 31.5 µM
- TGI (PC-3 prostate): 17.9 µM
- TGI (RPMI-8226 leukemia): 75.9 µM
- TGI (RXF 393 renal): 32.3 µM
- TGI (SF-268 CNS): 26.8 µM
- TGI (SF-295 CNS): 20 µM
- TGI (SF-539 CNS): 29.8 µM
- TGI (SK-MEL-2 melanoma): 27.7 µM
- TGI (SK-MEL-28 melanoma): 25.2 µM
- TGI (SK-MEL-5 melanoma): 20.8 µM
- TGI (SK-OV-3 ovarian): 28.9 µM
- TGI (SN12C renal): 24.3 µM
- TGI (SNB-19 CNS): 36.6 µM
- TGI (SR leukemia): > 100 µM
- TGI (SW-620 colon): 21.7 µM
- TGI (T-47D breast): 24.1 µM
- TGI (TK-10 renal): 35 µM
- TGI (U251 CNS): 24.1 µM
- TGI (UACC-257 melanoma): 27 µM
- TGI (UACC-62 melanoma): 40.7 µM
- TGI (UO-31 renal): 23.4 µM
